According to a melting point compilation (Tetko et al.; mined from patent text by program, amines drawn as free bases though some values may be those of a salt):

First: CCc1c(O)c(=O)ccn1CCOC(=O)C(C)(C)C
Second: CCOC(=O)C(C)(OC)C(=O)Nc1ccc(Br)cc1C (stereo not given)
The melting point of the first is higher: 113 to 115 °C for the first, 99 to 103 °C for the second.

First: COc1cccc(NC(=O)/C=C(\C)c2cc3cccc(OCCCC(=O)O)c3o2)c1
Second: COc1ccc(CCCOS(C)(=O)=O)cc1OCc1coc(/C=C/c2ccccc2)n1
The melting point of the first is higher: 156 to 158 °C for the first, 112 to 113 °C for the second.

First: CCCn1nc2c(N)nc3ccccc3c2c1CCNC(=O)OCC
Second: CCCCc1c(C(=O)N(C)Cc2ccc3c(Br)c(OCc4nnn[nH]4)ccc3c2)c2ccccc2n1C
The melting point of the first is lower: 143 to 144 °C for the first, 147 to 149 °C for the second.

First: COc1cc2c(cc1OC)-c1c(-c3nc(-c4ccccc4)no3)c(-c3cc(C)c(O)c(C)c3)c(C)n1CC2
Second: COc1cc(Nc2c(C#N)cnc3cc(-c4csc(CN5CCN(C)CC5)c4)ccc23)c(Cl)cc1Cl
The melting point of the first is lower: 191 to 193 °C for the first, 206 to 209 °C for the second.

First: O=C(O)Cc1cccc(C(=O)c2ccccc2)c1
Second: O=C(O)Cc1cc(C(=O)c2ccccc2Cl)ccc1O
The melting point of the first is lower: 101 to 103 °C for the first, 148 °C for the second.

First: O=C(Nc1ccccc1)N1CCc2[nH]cc3c(=O)n(-c4ccc(Cl)cc4)nc-3c2C1
Second: COc1ccc(S(=O)(=O)N(CC(N)=O)c2ccc(Cl)cc2Cc2ccccc2Cl)cc1
The melting point of the first is higher: 293 to 295 °C for the first, 150 °C for the second.

First: O=c1nc2n(c(=O)n1CCBr)CCCC2
Second: Cc1cn(C[C@H]2CC[C@@H](CO)O2)c(=O)[nH]c1=O
The melting point of the first is lower: 64 to 66 °C for the first, 133 to 135 °C for the second.

Compared with `O=C(Nc1ccc(C(=O)O)cc1)OCc1cn(-c2cc3cc(C(=O)O)c(=O)[nH]c3cc2C(F)(F)F)cn1`, `FC(F)(F)c1nc(-c2ccc(NCc3ccccc3)cn2)no1` is lower in melting point: 218 to 220 °C for the first, 81 to 84 °C for the second.

First: CCOCC(=O)OC1(C(=O)CO)CCC2C3CCC4=CC(=O)CCC4(C)C3C(O)CC21C (stereo not given)
Second: CC1(COC2CC3C4CCC5=CC(=O)C=CC5(C)C4(F)C(O)CC3(C)C2(O)C(=O)CCl)CO1 (stereo not given)
The melting point of the first is lower: 161 °C for the first, 193 to 236 °C for the second.

First: CCCc1[nH]c2cc(C(=O)OC)ccc2c1C(=O)C1CCCCC1
Second: CCCCCOc1cc(C(=O)O)ccc1OC
The melting point of the first is higher: 136 to 137 °C for the first, 125 °C for the second.

First: Cc1cc(Cl)n2nc(S(=O)(=O)Nc3c(Cl)cccc3Cl)nc2c1
Second: CN(C)C=C1CN=C(c2ccccc2Cl)c2cc(Cl)ccc2C1=O
The melting point of the first is higher: 257 to 258 °C for the first, 170 to 171 °C for the second.

First: COc1ccc(OC)c(C(=O)c2cc3cc(OC)ccc3o2)c1
Second: COC(=O)Cc1cc(OCc2ccccc2)ccc1OC
The melting point of the first is higher: 119 to 121 °C for the first, 74 to 75 °C for the second.

`ClC1=Nc2ccccc2Sc2ccccc21` and `CC(=O)n1ncc2c(OCc3ccccc3)cccc21` cannot be ordered by melting point: 93 to 97 °C for the first, 97 °C for the second.

Compared with `C[C@H](NCc1ccc(OCc2ccccc2F)c(Cc2ccccc2F)c1)C(N)=O`, `COc1ccc(Cc2cnc(N)nc2N)cc1OCCNS(=O)(=O)c1ccc(N)cc1` is higher in melting point: 161 °C for the first, 207 to 208 °C for the second.

First: NC(=O)Cc1c(-c2ccccc2)nn2cccnc12
Second: COC(=O)c1ccc(C(O)c2cnn3c(N(C)c4ccccc4)ncnc23)cc1 (stereo not given)
The melting point of the first is higher: 217 to 219 °C for the first, 68 °C for the second.

Compared with `Cn1cc(C(=S)NCc2ccc(Cl)cc2)c(=O)c2cc(I)ccc21`, `Clc1ccc(Nc2nnc(NCc3ccncc3)c3ccccc23)cc1` is higher in melting point: 153 to 155 °C for the first, 233 to 236 °C for the second.

First: CCS(=O)C1(Cl)CC2CC(=O)N2C1C(=O)OCc1ccccc1 (stereo not given)
Second: COC(=O)CSc1cccc(CN)c1
The melting point of the first is higher: 123 to 125 °C for the first, 72 °C for the second.

Compared with `Cc1ccsc1C(=O)C(=CN(C)C)c1ccccc1[N+](=O)[O-]`, `COc1cc(C(=O)O)c(OC)c2ccccc12` is higher in melting point: 101 to 103 °C for the first, 142 to 144 °C for the second.

First: CC(=O)c1ccc(CCC(=O)O)c(C(=O)O)c1
Second: O=C(O)CC/C=C/CC(NC(=O)c1ccccc1)C(=O)O (stereo not given)
The melting point of the first is lower: 76 °C for the first, 138 °C for the second.

First: C=CCn1c(SCCF)n[nH]c1=O
Second: CC1(CCCn2cc(C=O)c3ccccc32)OCCO1
The melting point of the first is higher: 65 °C for the first, 52 to 55 °C for the second.

First: CN(C)c1ccc(-c2cncc(OC3SCC(O)C(O)C3O)c2)cc1 (stereo not given)
Second: C=C(C)COc1ccc(C(=O)C=Cc2ccccc2)c(O)c1
The melting point of the first is higher: 240 °C for the first, 114 to 115 °C for the second.

Compared with `O=C(CN1CCCCC1)Nc1ccc([N+](=O)[O-])cc1`, `NC(=O)CC[C@H](Nc1ccc(O)cc1)C(=O)O` is higher in melting point: 144 to 145 °C for the first, 211 to 212 °C for the second.

First: CC1(C)CC(=O)c2cc(C#N)ccc2O1
Second: O=C1CCc2c(Cl)cc(F)cc21
The melting point of the first is higher: 119 to 120 °C for the first, 94 to 96 °C for the second.

First: Nn1c(C(F)(F)F)ccc(-c2ccc(Cl)cc2Cl)c1=O
Second: Cc1ccc(Cl)cc1-n1c(CF)nc2ccc([N+](=O)[O-])cc2c1=O
The melting point of the first is lower: 98 to 100 °C for the first, 191 to 192 °C for the second.

First: CC(CO)(CO)NS(=O)(=O)c1cccc([N+](=O)[O-])c1
Second: O=[N+]([O-])c1c(NCCO)cccc1NCCO
The melting point of the first is higher: 116 °C for the first, 103 to 104 °C for the second.

First: CCS(=O)(=O)c1ccc(SC2SCC(OC(C)=O)C(OC(C)=O)C2OC(C)=O)cc1 (stereo not given)
Second: CCCc1c(OCCOCCOCCOc2ccc3ccc(OCC(=O)O)cc3c2C(C)=O)ccc(C(C)=O)c1O
The melting point of the first is higher: 136 to 137 °C for the first, 110 to 111 °C for the second.

Compared with `c1ccc2c(c1)NCc1cscc1N2`, `Oc1cccc(C#CC=Cc2cccc(O)c2)c1` is lower in melting point: 167 to 169 °C for the first, 146 to 147 °C for the second.

Compared with `Cc1cc(O)c(SCc2cccc3ccccc23)c(=O)o1`, `CC(C)c1cc(CCC(=O)NCc2cccc(NC(=N)c3cccs3)c2)cc(C(C)C)c1O` is lower in melting point: 170 °C for the first, 144 to 145 °C for the second.

Going from `COc1cc(CCC2(C)OCc3c2cnc(C)c3O)cc(OC)c1OC` (stereo not given) to `COc1cc2c(O)nc(O)nc2c(OC)c1OC`, the melting point rises from 219 °C to greater than 255 °C.

First: CCCCCCCC(=O)NCc1ccsc1
Second: CCCc1c(OCCCCCc2nnnn2C)ccc(C(C)=O)c1O
The melting point of the first is lower: 71 to 72 °C for the first, 72 to 75 °C for the second.

First: C[N+](C)([O-])c1ccc(/C=C/c2c(F)cccc2Cl)cc1
Second: COc1cc2c(Cl)nc(-c3ccc(Cl)cc3)nc2c(OC)c1OC
The melting point of the first is lower: 82 to 84 °C for the first, 159 °C for the second.

First: COCCCN1CCC(CNC(=O)c2cc(Cl)c(N)n3cc(C)nc23)CC1
Second: CCCC(OC)c1ccc(Cl)c2nc3n(c12)CCCN3c1c(C)cc(Cl)cc1Cl (stereo not given)
The melting point of the first is higher: 167 °C for the first, 151 to 152 °C for the second.

First: CC(C)(CN)c1ccc(C(=O)Nc2cn3cc(-n4ccnc4)ccc3n2)cc1
Second: CCOC(=O)c1ccn(-c2ccc(OCC)cc2)n1
The melting point of the first is higher: 258 to 260 °C for the first, 88 to 90 °C for the second.

Compared with `CC(C)(C)CNC(=NC#N)Nc1cccnc1`, `CCC(=O)OC(CC)c1nc2c(C(F)(F)F)cccc2c(O)c1C(=O)Nc1nccs1` (stereo not given) is lower in melting point: 214 to 215 °C for the first, 187 °C for the second.

First: CC(C)(C)c1ccc(OS(C)(=O)=O)c(C(C)(C)C)c1
Second: CCCCCC(CC(=O)O)c1cc(C(=O)OC)c(OC)cc1OC (stereo not given)
The melting point of the first is lower: 63 °C for the first, 106 to 107 °C for the second.

First: O=C(NCO)N1CC(Oc2cccc(C(F)(F)F)c2)C1
Second: OCc1cccc(-c2ncc(OCCN3CCOCC3)cn2)c1
The melting point of the first is higher: 113 to 115 °C for the first, 101 to 102 °C for the second.

First: Nc1c(F)cc(Cl)c2c1CCCO2
Second: O=C(Oc1cccc2c(-c3ccccc3)c3cccc(OC(=O)C4CCCCC4)c3c(OC(=O)C3CCCCC3)c12)C1CCCCC1
The melting point of the first is lower: 47 to 50 °C for the first, 235 °C for the second.

`C=C(C)C1CCC2(C(=O)O)CCC3(C)C(CCC4C5(C)CCC(O)C(C)(CO)C5CCC43C)C12` (stereo not given) gave a melting point of 258 to 259 °C.
